Measured values taken from PubChem BioAssay AID2060499 (Molecular Pharmacology Branch, DTP, NCI, 2025).
pIC50: −log10 of the molar value.

Tested on: 777334-354-R2-J4-PDC tumor spheroids with HUVEC/MSC, viability
Test: Anticancer human tumor 777334-354-R2-J4-PDC patient-derived pancreatic adenocarcinoma cell line growth inhibition [GQUAD]
Conditions: for pIC50: curve of first compound; for viability, T/C: stronger effect = lower value
Description: DNA G-quadruplex Stabilizer Agents in Combinations in Complex Spheroids
A high-throughput screen of multi-cell type tumor spheroids was designed to identify active combinations of DNA G-quadruplex stabilizer agents and targeted small molecules. Complex spheroids include a stromal component modeled by human endothelial cells (HUVEC) and fibroblasts modeled by human mesenchymal stem cells (MSCs). The concentration ranges selected for each drug and investigational agent were based upon clinically achievable concentrations if the clinical Cmax of the agent was known.
Compounds. The drugs and investigational agents: pidnarulex (CX-5461; NSC782164), APTO-253 (NSC789042), BRACO-19 (NSC847499), peposertib (NSC802822), ceralasertib (NSC780249), elimusertib (NSC800525), camonsertib (NSC841442), AZD-1390 (NSC803789), olaparib (NSC753686), talazoparib (NSC767125), ART-558 (NSC835418), sotorasib (NSC818433), MRTX-1133 (NSC836407), SN-38 (NSC673596), topotecan (NSC609699), etoposide (NSC141540), doxorubicin (NSC123127), gemcitabine (NSC613327), 5-fluorouracil (NSC19893), paclitaxel (NSC125973), vemurafenib (NSC761431), panobinostat (NSC761190), R-306465 (JNJ-16241199; NSC773264), adavosertib (NSC754352), TP-3654 (NSC805149), carboplatin (NSC241240), KSQ-4279 (NSC840948), and staurosporine (NSC755774) were obtained from the National Cancer Institute (NCI) Developmental Therapeutics Program Chemical Repository (34). The FDA-approved anticancer drug set is available from the NCI Developmental Therapeutics Program. […] The stock solutions were prepared in dimethyl sulfoxide (DMSO, Sigma-Aldrich, St. Louis, MO, cat. D2650) at 800-fold the tested concentration and stored at -70 degrees C prior to their use. All drugs and investigational agents were tested over a range starting from a high concentration at or near the clinical Cmax and decreasing in half-log increments. If the clinical Cmax for an agent had not been determined, the highest concentration tested was 10 microM.
2.3 Cell Culture. All cells were maintained in an incubator at 37 degrees C and 5% CO2 with 95% humidity. The PDC lines were cultured according to standard operating procedures established by the NCI PDMR. All PDCs were thawed and cultured in Matrigel-coated flasks prepared with a working solution of 1X Ham's F-12 nutrient mix, without supplementation (Invitrogen, cat. 11765054), 100 U/mL penicillin-streptomycin (Invitrogen, cat. 15140122), and 2.5% Matrigel (Corning Inc., cat. 354248) for the first three passages. The 857933-349-R-J2-PDC line was cultured in 6C/Colon 1B media, which includes advanced DMEM/F-12 (Thermo Fisher Scientific, cat. 12634028), 10 mM HEPES (Thermo Fisher Scientific, cat. 15630080), 1X GlutaMAX supplement (Thermo Fisher Scientific, cat. 35050061), 0.1 mg/mL primocin (InvivoGen, cat. ant-pm-2), 10% defined fetal bovine serum, heat inactivated (HyClone Laboratories Inc., cat. SH30070.03HI), 50% L-WRN conditioned media (ATCC, cat. CRL-3276), 1.25 mM N-Acetyl-L-cysteine (Sigma-Aldrich, cat. A9165), 10 mM nicotinamide (Sigma-Aldrich, cat. N0636), 1X B-27 supplement (Thermo Fisher Scientific, cat. 17504044), 1X N-2 supplement (Thermo Fisher Scientific, cat. 17502048), 10 microM Y-27632 dihydrochloride (Tocris Bioscience, cat. 1254), and 50 ng/mL human EGF recombinant protein (Thermo Fisher Scientific, cat. PHG0311). The 485176-168-R4-J1-PDC line was cultured in Panc media, which includes all 6C/Colon 1B media components plus 100 ng/mL human FGF-10 (Thermo Fisher Scientific, cat. 100-26), 500 nM SB-431542 (Selleckchem, cat. S1067), and gastrin (Tocris, cat. 3006).
[…]
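Also: spheroids exposed to compounds for 7 days before readout.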

With `Cn1ncnc1[C@H]1c2n[nH]c(=O)c3cc(F)cc(c23)N[C@@H]1c1ccc(F)cc1` + Cc1cnc(CNC(=O)c2c(=O)c3ccc(N4CCCN(C)CC4)nc3n3c2sc2ccccc23)cn1 the pIC50 (second compound 0.0316 µM) was < 6.50, the pIC50 (second compound 0.1 µM) was < 6.50 and the pIC50 (second compound 0.316 µM) was < 6.50. The pIC50 (second compound 1 µM) was < 6.50, the pIC50 (second compound 3.16 µM) was < 6.50 and the pIC50 (second compound 10 µM) was < 6.50. The viability, T/C (second compound 0.0316 µM, first compound 0.000999 µM) was 97.7%, the viability, T/C (second compound 0.0316 µM, first compound 0.00316 µM) was 86.3% and the viability, T/C (second compound 0.0316 µM, first compound 0.00999 µM) was 96.8%. For the same molecule, the viability, T/C (second compound 0.0316 µM, first compound 0.0316 µM) was 95%, the viability, T/C (second compound 0.0316 µM, first compound 0.0999 µM) was 104% and the viability, T/C (second compound 0.0316 µM, first compound 0.316 µM) was 88%. The viability, T/C (second compound 0.1 µM, first compound 0.000999 µM) was 86.4%, the viability, T/C (second compound 0.1 µM, first compound 0.00316 µM) was 72.6% and the viability, T/C (second compound 0.1 µM, first compound 0.00999 µM) was 90.8%. The viability, T/C (second compound 0.1 µM, first compound 0.0316 µM) was 86.2%, the viability, T/C (second compound 0.1 µM, first compound 0.0999 µM) was 94.5% and the viability, T/C (second compound 0.1 µM, first compound 0.316 µM) was 78.2%. It also gave a viability, T/C (second compound 0.316 µM, first compound 0.000999 µM) of 83.7%, a viability, T/C (second compound 0.316 µM, first compound 0.00316 µM) of 81.1% and a viability, T/C (second compound 0.316 µM, first compound 0.00999 µM) of 71.9%. For the same molecule, the viability, T/C (second compound 0.316 µM, first compound 0.0316 µM) was 79.6%, the viability, T/C (second compound 0.316 µM, first compound 0.0999 µM) was 87.5% and the viability, T/C (second compound 0.316 µM, first compound 0.316 µM) was 68%. It also gave a viability, T/C (second compound 1 µM, first compound 0.000999 µM) of 77.7%, a viability, T/C (second compound 1 µM, first compound 0.00316 µM) of 74.1% and a viability, T/C (second compound 1 µM, first compound 0.00999 µM) of 64.4%. The viability, T/C (second compound 1 µM, first compound 0.0316 µM) was 71.3%, the viability, T/C (second compound 1 µM, first compound 0.0999 µM) was 76.5% and the viability, T/C (second compound 1 µM, first compound 0.316 µM) was 62.5%. For the same molecule, the viability, T/C (second compound 3.16 µM, first compound 0.000999 µM) was 60.7%, the viability, T/C (second compound 3.16 µM, first compound 0.00316 µM) was 63.8% and the viability, T/C (second compound 3.16 µM, first compound 0.00999 µM) was 57.3%. The viability, T/C (second compound 3.16 µM, first compound 0.0316 µM) was 60.6%, the viability, T/C (second compound 3.16 µM, first compound 0.0999 µM) was 61% and the viability, T/C (second compound 3.16 µM, first compound 0.316 µM) was 54%. It also gave a viability, T/C (second compound 10 µM, first compound 0.000999 µM) of 52.1%, a viability, T/C (second compound 10 µM, first compound 0.00316 µM) of 58.4% and a viability, T/C (second compound 10 µM, first compound 0.00999 µM) of 58.2%. For the same molecule, the viability, T/C (second compound 10 µM, first compound 0.0316 µM) was 68.7%, the viability, T/C (second compound 10 µM, first compound 0.0999 µM) was 56.1% and the viability, T/C (second compound 10 µM, first compound 0.316 µM) was 51.8%.
